Experimental data taken from ChEMBL document CHEMBL6182920, “The Discovery of C7-Substituted Norbornyl Bisamides as RXFP1 Small Molecule Agonists” (J Med Chem, 2025).
Converted amounts (≈) assume the structure as drawn.

Tests used:
[1] = target: T1, Relaxin receptor 1 (Mus musculus, UniProt Q6R6I7); assay: Agonist activity at mouse RXFP1 stably expressed in HEK293 cells assessed as intracellular cAMP accumulation incubated for 30 mins by HTRF assay; format: functional, cell-based
T1 sequence (Q6R6I7 whole entry): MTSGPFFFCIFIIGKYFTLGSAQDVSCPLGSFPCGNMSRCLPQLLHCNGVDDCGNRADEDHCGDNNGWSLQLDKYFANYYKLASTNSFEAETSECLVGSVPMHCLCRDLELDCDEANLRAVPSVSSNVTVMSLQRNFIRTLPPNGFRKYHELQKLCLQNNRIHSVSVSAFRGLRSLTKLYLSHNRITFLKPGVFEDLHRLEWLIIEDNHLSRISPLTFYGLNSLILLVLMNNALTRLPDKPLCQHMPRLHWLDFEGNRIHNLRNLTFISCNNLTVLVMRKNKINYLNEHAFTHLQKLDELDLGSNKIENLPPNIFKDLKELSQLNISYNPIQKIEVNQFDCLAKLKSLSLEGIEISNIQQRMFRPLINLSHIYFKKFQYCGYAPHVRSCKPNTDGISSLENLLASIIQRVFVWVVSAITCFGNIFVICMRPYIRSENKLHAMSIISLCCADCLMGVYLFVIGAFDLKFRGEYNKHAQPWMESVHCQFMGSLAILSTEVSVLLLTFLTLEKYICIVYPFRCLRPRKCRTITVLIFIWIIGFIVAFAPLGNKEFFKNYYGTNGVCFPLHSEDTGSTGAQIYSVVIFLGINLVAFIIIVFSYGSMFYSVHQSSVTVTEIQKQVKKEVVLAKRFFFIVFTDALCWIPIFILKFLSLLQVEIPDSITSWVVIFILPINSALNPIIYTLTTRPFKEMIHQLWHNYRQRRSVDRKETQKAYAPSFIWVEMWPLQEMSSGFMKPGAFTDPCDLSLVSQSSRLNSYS

[2] = target: T2, Relaxin receptor 1 (Homo sapiens, UniProt Q9HBX9); assay: Agonist activity at human RXFP1 stably expressed in HEK293 cells assessed as intracellular cAMP accumulation incubated for 30 mins by HTRF assay
T2 sequence (Q9HBX9 whole entry): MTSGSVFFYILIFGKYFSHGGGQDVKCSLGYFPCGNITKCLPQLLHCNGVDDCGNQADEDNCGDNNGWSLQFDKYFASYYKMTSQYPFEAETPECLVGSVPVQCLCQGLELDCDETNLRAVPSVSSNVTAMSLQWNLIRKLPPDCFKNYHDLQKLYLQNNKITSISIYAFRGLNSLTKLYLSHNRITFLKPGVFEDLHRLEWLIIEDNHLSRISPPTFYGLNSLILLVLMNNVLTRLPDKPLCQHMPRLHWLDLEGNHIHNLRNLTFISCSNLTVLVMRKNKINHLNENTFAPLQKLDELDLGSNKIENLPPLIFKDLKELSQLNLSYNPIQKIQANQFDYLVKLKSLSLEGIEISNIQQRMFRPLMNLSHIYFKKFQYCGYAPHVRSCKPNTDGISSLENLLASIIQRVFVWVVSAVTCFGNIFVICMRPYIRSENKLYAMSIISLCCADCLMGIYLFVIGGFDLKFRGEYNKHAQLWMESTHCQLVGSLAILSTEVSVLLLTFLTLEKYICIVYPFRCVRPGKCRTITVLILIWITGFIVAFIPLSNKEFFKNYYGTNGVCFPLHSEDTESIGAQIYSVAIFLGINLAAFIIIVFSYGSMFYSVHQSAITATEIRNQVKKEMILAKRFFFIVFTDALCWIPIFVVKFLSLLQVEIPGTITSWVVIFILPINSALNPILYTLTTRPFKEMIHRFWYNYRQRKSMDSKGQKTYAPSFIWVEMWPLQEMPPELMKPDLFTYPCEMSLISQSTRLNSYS

[3] = Thermodynamic aqueous solubility of compound in phosphate buffer at pH 7.4 by reversed-phase ultrahigh pressure liquid chromatography; format: physicochemical; conditions: phosphate buffer, read-out: Therm_solubility
[4] = Microsomal stability in rat liver microsomes assessed as half life; format: ADME, Microsome
[5] = Microsomal stability in mouse liver microsomes assessed as half life; format: ADME, Microsome
[6] = Total AUC in Sprague-Dawley rat at 1 mg/kg, iv; format: ADME, organism-based; conditions: in vivo
[7] = Half life in Sprague-Dawley rat at 1 mg/kg, iv; format: ADME, organism-based; conditions: in vivo
[8] = Volume of distribution at steady state in Sprague-Dawley rat at 1 mg/kg, iv; format: ADME, organism-based; conditions: in vivo, read-out: Vdss
[9] = target: T3, Cytochrome P450 2C8 (Homo sapiens, UniProt P10632); assay: Inhibition of CYP2C8 (unknown origin)
T3 sequence (P10632 whole entry): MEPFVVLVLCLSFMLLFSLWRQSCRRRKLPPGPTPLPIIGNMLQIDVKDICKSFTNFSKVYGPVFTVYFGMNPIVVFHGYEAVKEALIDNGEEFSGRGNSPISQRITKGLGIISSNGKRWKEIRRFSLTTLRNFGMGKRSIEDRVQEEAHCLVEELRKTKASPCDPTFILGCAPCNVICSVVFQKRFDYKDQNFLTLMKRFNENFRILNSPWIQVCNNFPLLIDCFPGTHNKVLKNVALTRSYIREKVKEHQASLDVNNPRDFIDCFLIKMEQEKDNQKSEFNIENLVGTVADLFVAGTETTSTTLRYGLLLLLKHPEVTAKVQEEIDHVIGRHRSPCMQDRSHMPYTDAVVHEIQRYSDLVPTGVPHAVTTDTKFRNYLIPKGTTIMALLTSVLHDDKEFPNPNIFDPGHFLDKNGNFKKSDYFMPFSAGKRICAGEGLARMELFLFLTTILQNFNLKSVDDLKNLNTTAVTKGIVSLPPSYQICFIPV

[10] = target: Cytochrome P450 3A4 (Homo sapiens, UniProt P08684); assay: Inhibition of CYP3A4 (unknown origin)
[11] = target: T4, Nuclear receptor subfamily 1 group I member 2 (Homo sapiens, UniProt O75469); assay: Activation of PXR (unknown origin)
T4 sequence (O75469 whole entry): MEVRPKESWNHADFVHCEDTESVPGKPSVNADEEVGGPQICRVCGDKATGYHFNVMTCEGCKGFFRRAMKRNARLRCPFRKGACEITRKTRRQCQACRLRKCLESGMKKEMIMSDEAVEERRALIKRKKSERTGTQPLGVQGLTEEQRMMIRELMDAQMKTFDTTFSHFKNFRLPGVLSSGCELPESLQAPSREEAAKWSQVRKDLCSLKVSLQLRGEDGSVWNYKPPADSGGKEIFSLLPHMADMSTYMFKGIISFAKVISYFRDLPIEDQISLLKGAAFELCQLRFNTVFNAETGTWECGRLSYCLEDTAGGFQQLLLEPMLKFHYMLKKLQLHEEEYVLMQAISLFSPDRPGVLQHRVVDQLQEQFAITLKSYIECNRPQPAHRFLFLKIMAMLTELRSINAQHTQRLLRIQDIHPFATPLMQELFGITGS

[12] = target: Nav1.5 (Homo sapiens, UniProt Q14524); assay: Inhibition of human Nav1.5 at 10 uM by patch clamp assay relative to control
[13] = tested on: Rattus norvegicus; assay: Chronotropic effect in isoflurane-anesthetized male naive Sprague-Dawley rat model assessed as increase in heart rate at 5 mg/kg/min, iv measured after 60 mins; format: functional; conditions: 1 h

Sequence of Cytochrome P450 3A4 (P08684 whole entry): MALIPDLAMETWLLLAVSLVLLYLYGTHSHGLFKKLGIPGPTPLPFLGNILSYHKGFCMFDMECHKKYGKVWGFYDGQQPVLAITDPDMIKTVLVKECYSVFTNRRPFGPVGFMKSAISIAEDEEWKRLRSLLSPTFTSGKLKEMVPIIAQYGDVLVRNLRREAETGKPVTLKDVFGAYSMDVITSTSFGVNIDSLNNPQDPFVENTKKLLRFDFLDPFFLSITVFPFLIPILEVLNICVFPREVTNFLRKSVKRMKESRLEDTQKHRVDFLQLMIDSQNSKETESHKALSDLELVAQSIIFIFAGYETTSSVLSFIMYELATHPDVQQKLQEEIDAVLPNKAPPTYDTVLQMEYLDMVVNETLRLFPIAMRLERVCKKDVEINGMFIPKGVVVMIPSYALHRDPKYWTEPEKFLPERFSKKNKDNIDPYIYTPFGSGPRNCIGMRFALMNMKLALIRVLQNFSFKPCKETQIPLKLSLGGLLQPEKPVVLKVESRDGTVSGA
Sequence of Nav1.5 (Q14524 whole entry): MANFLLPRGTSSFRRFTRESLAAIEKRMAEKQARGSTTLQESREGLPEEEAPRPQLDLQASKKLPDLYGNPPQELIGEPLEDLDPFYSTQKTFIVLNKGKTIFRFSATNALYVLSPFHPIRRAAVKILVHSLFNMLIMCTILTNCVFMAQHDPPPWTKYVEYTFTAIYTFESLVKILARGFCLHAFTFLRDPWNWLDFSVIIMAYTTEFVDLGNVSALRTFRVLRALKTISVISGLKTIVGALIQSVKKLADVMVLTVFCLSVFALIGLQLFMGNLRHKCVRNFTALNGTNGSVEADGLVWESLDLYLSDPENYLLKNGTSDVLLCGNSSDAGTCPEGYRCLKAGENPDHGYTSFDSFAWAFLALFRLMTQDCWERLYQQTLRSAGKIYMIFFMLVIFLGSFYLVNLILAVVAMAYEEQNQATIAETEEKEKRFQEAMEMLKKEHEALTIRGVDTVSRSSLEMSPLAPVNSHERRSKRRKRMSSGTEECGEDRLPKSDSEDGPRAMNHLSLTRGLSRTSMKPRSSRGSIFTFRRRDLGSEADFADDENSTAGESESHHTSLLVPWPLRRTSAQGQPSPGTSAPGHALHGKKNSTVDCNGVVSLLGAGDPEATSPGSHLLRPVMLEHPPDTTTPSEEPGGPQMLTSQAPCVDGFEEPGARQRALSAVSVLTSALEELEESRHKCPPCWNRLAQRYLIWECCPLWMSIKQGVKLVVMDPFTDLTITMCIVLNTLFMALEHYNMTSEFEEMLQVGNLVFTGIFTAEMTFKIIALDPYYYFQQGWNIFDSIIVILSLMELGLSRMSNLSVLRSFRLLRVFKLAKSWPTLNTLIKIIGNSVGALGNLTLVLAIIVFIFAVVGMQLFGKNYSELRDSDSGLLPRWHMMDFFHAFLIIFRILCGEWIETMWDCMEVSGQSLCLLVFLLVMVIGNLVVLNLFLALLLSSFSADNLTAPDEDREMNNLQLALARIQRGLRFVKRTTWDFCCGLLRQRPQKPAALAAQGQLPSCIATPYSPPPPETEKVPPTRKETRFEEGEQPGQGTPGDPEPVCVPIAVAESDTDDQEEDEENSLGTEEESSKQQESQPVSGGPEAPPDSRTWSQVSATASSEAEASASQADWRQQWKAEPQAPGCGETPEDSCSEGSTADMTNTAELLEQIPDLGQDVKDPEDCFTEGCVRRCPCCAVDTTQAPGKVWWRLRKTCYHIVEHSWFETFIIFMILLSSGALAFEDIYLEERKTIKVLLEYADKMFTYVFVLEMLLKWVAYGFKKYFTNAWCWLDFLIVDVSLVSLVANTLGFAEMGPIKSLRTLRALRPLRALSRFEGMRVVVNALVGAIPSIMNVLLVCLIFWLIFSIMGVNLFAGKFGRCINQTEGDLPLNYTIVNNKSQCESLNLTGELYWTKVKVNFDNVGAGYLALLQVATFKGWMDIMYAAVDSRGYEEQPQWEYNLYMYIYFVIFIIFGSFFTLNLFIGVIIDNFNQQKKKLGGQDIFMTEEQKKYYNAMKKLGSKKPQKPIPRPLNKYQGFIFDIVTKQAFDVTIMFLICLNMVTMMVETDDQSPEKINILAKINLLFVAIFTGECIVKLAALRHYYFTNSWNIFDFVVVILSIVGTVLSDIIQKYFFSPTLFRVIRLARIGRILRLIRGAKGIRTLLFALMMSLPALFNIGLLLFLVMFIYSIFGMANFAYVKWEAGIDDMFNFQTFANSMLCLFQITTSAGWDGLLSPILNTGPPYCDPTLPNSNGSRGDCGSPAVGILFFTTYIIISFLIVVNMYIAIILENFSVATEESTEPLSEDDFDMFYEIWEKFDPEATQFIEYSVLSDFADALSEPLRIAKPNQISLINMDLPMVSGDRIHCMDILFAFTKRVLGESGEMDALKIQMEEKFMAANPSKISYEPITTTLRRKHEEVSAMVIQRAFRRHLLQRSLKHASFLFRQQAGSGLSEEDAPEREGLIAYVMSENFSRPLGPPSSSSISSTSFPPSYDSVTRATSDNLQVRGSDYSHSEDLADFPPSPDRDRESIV

EC50 [1]: 30 nM | EC50 [2]: 2 nM | solubility thermodynamic [3]: 130 µg/mL (≈ 179 µM) | half-life [4]: > 2 h | half-life [5]: > 2 h | AUC [6]: 9.6 µM·h | half-life [7]: 4.43 h | Vd [8]: 0.09 L/kg | IC50 [9]: 2600 nM | IC50 [10]: > 20000 nM | EC50 [11]: > 50000 nM
SMILES: CNC(=O)OC(C(=O)O)c1ccc(F)c(-c2ccc(OC)c(C(=O)N[C@H]3[C@@H](C(=O)Nc4ccc(F)c(C(F)(F)F)c4)[C@H]4CC[C@@H]3/C4=C\C3CC3)c2)c1 (stereo in doubt; 39)
inhibition at 10 µM [12]: 59% | Activity [13]: 25%
